Laboratory results from PMC9841593 (ACS Medicinal Chemistry Letters, 2022).

Biological target: influenza PAN endonuclease (Influenza A virus, UniProt C3W5S0, DEL52-64/INS51G)
Format: biochemical, influenza A/California/04/2009(H1N1)

Row | SMILES | inhibition of PAN (in words)
1 | NC(=O)c1[nH]c(Br)cc(=O)c1O [Compound 3] | little difference in activity when compared with compounds 1 or 2
2 | O=c1cc(Br)[nH]c(-c2nnn[nH]2)c1O [Compound 4] | activity comparable to that of the parent structure
3 | CONC(=O)c1[nH]c(Br)cc(=O)c1O [Compound 5] | moderate inhibition
4 | O=c1[nH]c(-c2[nH]c(Br)cc(=O)c2O)no1 [Compound 7] | most potent IC50 value of the evaluated compounds
5 | Cc1nc(-c2[nH]c(Br)cc(=O)c2O)no1 [Compound 8] | good inhibition
6 | N#Cc1[nH]c(Br)cc(=O)c1O [Compound 9] | relatively poor inhibition
7 | O=c1cc(Br)[nH]c(C2=NCCN2)c1O [Compound 10] | markedly poorer inhibition than the parent MBI
8 | O=c1cc(Br)[nH]c(C2=NCCO2)c1O [Compound 11] | markedly poorer inhibition than the parent MBI
